From ChEMBL document CHEMBL1201862, “PubChem BioAssay data set” (2004)
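1) Cells in 96-well plates. 2) Compound, 48 h, 5 concentrations. 3) Linear interpolation between surrounding doses. 4) Unreached endpoint = highest concentration. GI50 marks 50% less growth.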 Active and inactive are the calls of the source. Cut-off read from the data, not from the text of the source: active = GI50 up to about 1.1 µM and inactive = higher.

How the values were obtained:
Assay in all cases: inhibition of tumour cell growth, NCI panel, 48 h
[1] = system: HT-29
[2] = system: LOX IMVI
[3] = system: HCT-15
[4] = system: A549
[5] = system: SN12C
[6] = system: EKVX
[7] = system: TK-10
[8] = system: NCI-H460
[9] = system: RXF 393
[10] = system: HCC 2998
[11] = system: HOP-92
[12] = system: KM12
[13] = system: SK-MEL-5
[14] = system: SK-OV-3
[15] = system: UO-31
[16] = system: CCRF-CEM
[17] = system: UACC-257
[18] = system: SF-295
[19] = system: SNB-75
[20] = system: COLO 205

| SMILES | GI50 [1] | GI50 [2] | GI50 [3] | GI50 [4] | GI50 [5] | GI50 [6] | GI50 [7] | GI50 [8] | GI50 [9] | GI50 [10] | GI50 [11] | GI50 [12] | GI50 [13] | GI50 [14] | GI50 [15] | GI50 [16] | GI50 [17] | GI50 [18] | GI50 [19] | GI50 [20] |
| --- | --- | --- | --- | --- | --- | --- | --- | --- | --- | --- | --- | --- | --- | --- | --- | --- | --- | --- | --- | --- |
| C=CCNC(=O)CN(CC(=O)OC)C1CCCCC1N(CC(=O)OC)CC(=O)OC (stereo not drawn) | > 100 µM (inactive) | > 100 µM (inactive) | > 100 µM | > 100 µM (inactive) | > 100 µM (inactive) | > 100 µM (inactive) | > 100 µM (inactive) | > 100 µM (inactive) | > 100 µM (inactive) | 70 µM (inactive) | > 100 µM (inactive) | > 100 µM (inactive) | > 100 µM (inactive) | > 100 µM (inactive) | > 100 µM (inactive) | > 100 µM (inactive) | > 100 µM (inactive) | > 100 µM (inactive) |  |  |
| C#CC[N+](CCO)(CCO)CCCCCCCCCCCCCCCCCC | 4.59 µM (inactive) | 4.81 µM (inactive) | 15.3 µM | 15.7 µM (inactive) | 16.4 µM (inactive) | 21.7 µM (inactive) |  | 9.53 µM (inactive) | 2.48 µM (inactive) | 11.5 µM (inactive) | 2 µM (inactive) | 3.55 µM (inactive) | 15.7 µM (inactive) | 17.6 µM (inactive) | 15.1 µM (inactive) | 2.03 µM (inactive) | 15.8 µM (inactive) | 7.76 µM (inactive) | 4.16 µM (inactive) | 11.2 µM (inactive) |
| O=c1c2cccnc2oc2c(Cl)cc(-c3nnn[nH]3)cc12 | > 100 µM (inactive) |  | > 100 µM | > 100 µM (inactive) | > 100 µM (inactive) | > 100 µM (inactive) | > 100 µM (inactive) |  | > 100 µM (inactive) | > 100 µM (inactive) | 68.7 µM (inactive) | > 100 µM (inactive) | > 100 µM (inactive) | > 100 µM (inactive) | 24.7 µM (inactive) | > 100 µM (inactive) |  |  | > 100 µM (inactive) | > 100 µM (inactive) |
| CC(=O)OC1C(O)C(C)OC(OC(=O)C2CCC3C(C2)OC2(CC(OC(=O)/C=C/c4ccccc4)C(C)CO2)C32CO2)C1OC1OC(C)C(O)C(O)C1O (stereo not drawn) | 0.0419 µM (active) | 0.115 µM (active) | 3.96 µM | 0.118 µM (active) | 0.0514 µM (active) | 0.0417 µM (active) |  | 0.0448 µM (active) | 0.0644 µM (active) | 0.0373 µM (active) | 0.0325 µM (active) | 0.0371 µM (active) | 0.0332 µM (active) | 0.0586 µM (active) | 7.78 µM (inactive) | 0.0342 µM (active) | 0.0325 µM (active) | 0.0776 µM (active) | 0.0468 µM (active) | 0.0341 µM (active) |
| CO[C@H]1ON=C(c2c(C)cc(C)cc2C)[C@@H]1C1(c2ccccc2)ON=C(c2c(C)cc(C)cc2C)O1 (stereo partly drawn) |  | > 100 µM (inactive) | > 10 µM | > 100 µM (inactive) | > 100 µM (inactive) | > 100 µM (inactive) | > 100 µM (inactive) | > 100 µM (inactive) | > 100 µM (inactive) | > 100 µM (inactive) | > 100 µM (inactive) | > 100 µM (inactive) |  | > 100 µM (inactive) | > 100 µM (inactive) | > 100 µM (inactive) | > 100 µM (inactive) | > 100 µM (inactive) |  | > 100 µM (inactive) |
| CC1OC(CO)(n2cnc3c(N)ncnc32)C(O)C1O (stereo not drawn) | > 100 µM (inactive) | > 100 µM (inactive) | > 100 µM | > 100 µM (inactive) | > 100 µM (inactive) | > 100 µM (inactive) |  | > 100 µM (inactive) | > 100 µM (inactive) | > 100 µM (inactive) | > 100 µM (inactive) | > 100 µM (inactive) | > 100 µM (inactive) | > 100 µM (inactive) | > 100 µM (inactive) | > 100 µM (inactive) | > 100 µM (inactive) | > 100 µM (inactive) | > 100 µM (inactive) | > 100 µM (inactive) |
